{"source": "patent US10168338B2", "about": "“Methods of identifying modulators of sestrin-gator-2 interaction for modulating mTORC1 activity” (Whitehead Institute for Biomedical Research, priority 2014, dated 2019)", "key": {"[1]": {"molecular_target": "T1, GATOR2-Sestrin2 interaction (Homo sapiens, UniProt P58004)", "T1 construct": "To isolate the FLAG-WDR24/endogenous-Sestrin2 complex; endogenous in cells; host or cells: HEK-293T cells stably expressing FLAG-WDR24; Sestrin2 and the other GATOR2 subunits are endogenous", "T1 sequence (P58004 1-480)": "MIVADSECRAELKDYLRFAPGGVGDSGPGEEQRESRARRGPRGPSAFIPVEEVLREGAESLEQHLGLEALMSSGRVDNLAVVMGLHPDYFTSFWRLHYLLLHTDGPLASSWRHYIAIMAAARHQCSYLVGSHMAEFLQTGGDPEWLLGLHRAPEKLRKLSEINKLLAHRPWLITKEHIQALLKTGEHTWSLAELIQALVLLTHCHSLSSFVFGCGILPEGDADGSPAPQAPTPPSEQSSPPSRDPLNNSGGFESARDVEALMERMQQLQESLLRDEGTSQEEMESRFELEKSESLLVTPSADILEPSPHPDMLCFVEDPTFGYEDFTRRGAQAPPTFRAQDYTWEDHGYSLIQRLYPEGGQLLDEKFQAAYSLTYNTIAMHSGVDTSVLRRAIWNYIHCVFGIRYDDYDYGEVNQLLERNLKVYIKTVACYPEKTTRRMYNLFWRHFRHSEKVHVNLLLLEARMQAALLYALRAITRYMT", "test": "Sestrin2-GATOR2 interaction in HEK-293T cells after starvation/restimulation (co-immunoprecipitation)", "format": "cell-based", "description": "(§1) In order to determine the effect of amino acids on the GATOR2-Sestrin interaction, transfected cells were incubated in amino acid free RPMI for 50 minutes and then stimulated with amino acids for 10 minutes. For glucose starvation, cells were incubated in RPMI media lacking glucose but containing amino acids and dialyzed serum for 50 minutes, followed by a 10 minute restimulation with 5 mM D-Glucose. For insulin deprivation, cells were incubated in RPMI without serum for 50 minutes and restimulated with 1 μg/ml insulin for 10 minutes. Finally, when Torin1 or Rapamycin was used, cells were incubated with 250 nM of each throughout the starvation and restimulation period.\nHEK-293T cells stably expressing FLAG-WDR24 or the control protein FLAG-metap2 (as described in Example 1) were starved for leucine, arginine, or all amino acids for 50 minutes. In some samples, cells were re-stimulated with leucine, arginine, or all amino acids for 10 minutes and then FLAG immunoprecipitates prepared from cell lysates. Immunoprecipitates and lysates were analyzed by immunoblotting for indicated proteins. Removal of either leucine or arginine from the cell media inhibited mTORC1 signaling, as indicated by S6K1 phosphorylation, to similar extents. Strikingly, however, only leucine starvation caused Sestrin2 to bind to GATOR2 inducing the interaction as effectively as complete amino acid starvation (FIG. 9A). […] Leucine starvation and stimulation also strongly regulated the interaction of endogenous Sestrin1, but not endogenous Sestrin3, with GATOR2 (Figure not shown)."}, "[2]": {"molecular_target": "T2, Sestrin-GATOR2 interaction (Homo sapiens, UniProt P58004)", "T2 construct": "To isolate the FLAG-WDR24/endogenous-Sestrin2 complex; endogenous in cells; host or cells: HEK-293T cells stably expressing FLAG-WDR24; Sestrin2 and the other GATOR2 subunits are endogenous", "T2 sequence (P58004 1-480)": "T1 sequence (P58004 1-480)", "test": "Effect of specific amino acids on Sestrin-GATOR2 interaction (FLAG-WDR24 immunoprecipitation, immunoblot)", "format": "cell-based", "settings": "HEK-293T stably expressing FLAG-WDR24; starvation/restimulation, pre- or post-lysis addition, washes of immunoprecipitates", "description": "In order to further explore if specific amino acid levels affected the Sestrin-GATOR2 interaction, HEK-293T cells stably expressing the FLAG-tagged GATOR2 component WDR24 (and FLAG-tagged metap2 as a control) were starved of either all amino acids (ALL); only leucine, arginine, and lysine (LRK); only leucine (L); only arginine (R); or only lysine (K) for 50 minutes, or starved for 50 minutes and restimulated for 10 minutes with the indicated amino acids.\nHEK-293T cells stably expressing the FLAG-tagged GATOR2 component WDR24 were starved of all amino acids for 50 minutes. Individual amino acids were added pre-lysis to the cell culture media or post-lysis to cell lysates prior to FLAG immunoprecipitation.\nFinally, HEK-293T cells stably expressing the FLAG-tagged GATOR2 component WDR24 were starved of all amino acids for 50 minutes. Immunoprecipitates were subjected to washes containing the indicated amounts of leucine or arginine and analyzed along with cell lysates by immunoblotting for the indicated proteins as shown in FIG. 8C."}, "Sestrin2": {"molecular_target": "T3, Sestrin2 (Homo sapiens, UniProt P58004)", "T3 construct": "expressed in transfected cells; host or cells: HEK-293T, transient transfection of a pRK5-based cDNA plasmid, anti-FLAG immunoprecipitation", "T3 sequence (P58004 1-480)": "T1 sequence (P58004 1-480)", "test": "[3H]-labeled amino acid binding to FLAG-Sestrin2 immunoprecipitated from HEK-293T cells", "settings": "for Ki: 10 μM 3H-leucine, three experiments, read-out: inhibitory constant (Ki) for competing leucine binding to Sestrin2; for affinity for Sestrin2, times lower than the affinity of leucine: relative to leucine Kd", "description": "Four million HEK-293T cells were plated in a 15 cm plate four days prior to the experiment. Each plate yielded the protein for one sample. Forty-eight hours after plating, the cells were transfected via the polyethylenimine method (O. Boussif et al., PNAS (USA), 92:7297-7301 (1995)) with the pRK5-based cDNA expression plasmids indicated in the figures in the following amounts: 5 μgFLAG-Sestrin2; 12 μg of the negative control Rap2A; 5 μg WDR24; 2 μg WDR24 with 4 μg each of HA-Seh1L, HA-Sec13, HA-Mios, and HA-WDR59; 12 […] (CG11299-PD); 12 μgFLAG-Sestrin1.1; 12 μg FLAG-Sestrin1.2; 12 μg FLAG-Sestrin3; 12 μg FLAG-Sestrin2 mutants (L261A, E451A, S190A) and up to 20 μg total DNA with empty-PRK5. Forty-eight hours after transfection cells were lysed as described in Example 1. If multiple samples of the same type were represented in the experiment, the cell lysates were combined, mixed, and evenly distributed amongst the relevant tubes, to ensure equal protein amounts across samples of the same type.\nAnti-FLAG immunoprecipitates were prepared as previously described, with the exception that, prior to incubation with lysates, the beads were blocked by rotating in 1 μg/μl bovine serum albumin (BSA) for 20 minutes at 4° C. and subsequently washed twice in lysis buffer. Thirty μl of the 50/50 slurry of beads in lysis buffer was added to each of the clarified cell lysates and incubated as previously described in Example 1.\nFor the binding assays, two tubes at a time were washed as previously indicated for immunoprecipitations. All the liquid was subsequently aspirated and a 15 μl aliquot of proteins bound to the beads was incubated for one hour on ice in cytosolic buffer (0.1% Triton, 40 mM HEPES pH 7.4, 10 mM NaCl, 150 mM KCl, 2.5 mM MgCl2) with the appropriate amount of [^3H]-labeled amino acids and unlabeled amino acids. Tubes were flicked every five minutes. At the end of one hour, the beads were briefly spun down, aspirated dry, and rapidly washed three times with binding wash buffer (0.1% Triton, 40 mM HEPES pH 7.4, 150 mM NaCl). The beads were aspirated dry again and resuspended in 85 μl of binding wash buffer. With a cut tip, each sample was mixed well and three 10 μl aliquots were separately quantified using a TriCarb® scintillation counter (PerkinElmer). This process was repeated in pairs for each sample, to ensure similar incubation and wash times for all samples analyzed across different experiments.\nAmino acid affinities to Sestrin2 were determined by first normalizing the bound [^3H]-labeled amino acid concentrations across three separate binding assays performed with varying amounts of unlabeled amino acid competition. These values were plotted and fit to a hyperbolic equation ([…]) to estimate the IC50 value. Kd or Ki values were derived from the IC50 value using the equation: Kd or Ki=IC50/(1+([[^3H]Leucine])/Kd)."}, "mTORC1": {"tested_on": "mTORC1", "test": "mTORC1 signaling in HEK-293T cells (S6K1 phosphorylation immunoblot)", "format": "cell-based, human", "settings": "v-ATPase inhibition", "description": "Immunoprecipitated proteins were denatured by the addition of 50 μl of sample buffer and boiling for 5 minutes as described (Kim et al., 2002), resolved by 8%-16% SDS-PAGE, and analyzed by immunoblotting using the appropriate antibody (antibodies to phospho-T389 S6K1, S6K1, Sestrin2, mTOR, Mios and FLAG all obtained from Cell Signaling Technology; antibodies to WDR24 and WDR59 were generously provided by Jianxin Xie at Cell Signaling Technology).\nas §1"}, "Sestrin2-GATOR2 complex": {"molecular_target": "T4, Sestrin2-GATOR2 complex (Homo sapiens, UniProt P58004)", "T4 construct": "To isolate the FLAG-WDR24/endogenous-Sestrin2 complex; endogenous in cells; host or cells: HEK-293T cells stably expressing FLAG-WDR24; Sestrin2 and the other GATOR2 subunits are endogenous", "T4 sequence (P58004 1-480)": "T1 sequence (P58004 1-480)", "test": "Amino acids added directly to immunopurified Sestrin2-GATOR2 complexes (immunoblot)", "format": "binding", "settings": "for effect on the Sestrin2-GATOR2 interaction in vitro: 300 μM each, added directly to FLAG immunoprecipitates; for concentration acting on Sestrin2-GATOR2 complex, fold greater than leucine: added to purified complexes, relative to leucine", "description": "We next tested if leucine acts directly on the Sestrin2-GATOR2 complex.\nHEK-293T cells stably expressing FLAG-WDR24 were starved for all amino acids for 50 minutes, lysed and subjected to anti-FLAG immunoprecipitation as described previously. The GATOR2-Sestrin2 complexes immobilized on the agarose beads were washed twice in lysis buffer with 500 mM NaCl, as previously described, and then incubated for 10 minutes in 1 mL of cytosolic buffer with the indicated concentrations of individual amino acids. The amount of GATOR2 and Sestrin2 that remained bound was assayed by SDS-PAGE and immunoblotting as described previously."}}, "data": [{"compound": "CCC(=O)N1CCN(c2ccc(-n3c(=O)ccc4cnc5ccc(-c6cnc7ccccc7c6)cc5c43)cc2C(F)(F)F)CC1", "note": "[Torin1]", "values": [{"measurement": "effect of pretreatment on the amino acid-induced decrease in the GATOR2-Sestrin2 interaction", "setting": "[1]; 250 nM throughout starvation and restimulation", "result": "did not prevent the amino acid-induced decrease in the GATOR2-Sestrin2 interaction"}]}, {"compound": "N=C(N)NCCC[C@H](N)C(=O)O", "note": "[arginine]", "values": [{"measurement": "disruption of the Sestrin-GATOR2 interaction", "setting": "[2]", "result": "but not arginine or lysine, disrupts the Sestrin-GATOR2 interaction"}, {"measurement": "binding of radiolabeled amino acid to Sestrin2", "setting": "Sestrin2; FLAG-Sestrin2 from HEK-293T, competed by excess unlabeled leucine", "result": "did not bind"}]}, {"compound": "C/C=C/[C@H]1O[C@@](O)([C@@H](C)[C@H](O)[C@H](C)[C@H]2OC(=O)/C(OC)=C/C(C)=C/[C@@H](C)[C@@H](O)[C@@H](CC)[C@@H](O)[C@H](C)C/C(C)=C/C=C/[C@@H]2OC)C[C@@H](O[C@H]2C[C@@H](O)[C@H](OC(N)=O)[C@@H](C)O2)[C@@H]1C", "note": "[concanamycin A]", "values": [{"measurement": "effect on the interaction between Sestrin2 and GATOR2", "setting": "[1]; in the absence of amino acids", "result": "reduced the interaction between Sestrin2 and GATOR2"}, {"measurement": "effect on mTORC1 signaling", "setting": "mTORC1", "result": "decreased mTORC1 signaling"}]}, {"compound": "CC[C@H](C)[C@H](N)C(=O)O", "note": "[isoleucine]", "values": [{"measurement": "Ki", "setting": "Sestrin2", "result": "616 ± 273", "unit": "µM"}, {"measurement": "affinity for Sestrin2, times lower than the affinity of leucine", "setting": "Sestrin2", "result": "~30", "unit": "times"}, {"measurement": "effect on the Sestrin2-GATOR2 interaction in vitro", "setting": "Sestrin2-GATOR2 complex", "result": "had any effect on the Sestrin2-GATOR2 interaction"}, {"measurement": "concentration acting on Sestrin2-GATOR2 complex, fold greater than leucine", "setting": "Sestrin2-GATOR2 complex", "result": "~25", "unit": "fold"}]}, {"compound": "NCCCC[C@H](N)C(=O)O", "note": "[lysine]", "values": [{"measurement": "disruption of the Sestrin-GATOR2 interaction", "setting": "[2]", "result": "but not arginine or lysine, disrupts the Sestrin-GATOR2 interaction"}]}, {"compound": "CSCC[C@H](N)C(=O)O", "note": "[methionine]", "values": [{"measurement": "Ki", "setting": "Sestrin2", "result": "354 ± 118", "unit": "µM"}, {"measurement": "affinity for Sestrin2, times lower than the affinity of leucine", "setting": "Sestrin2", "result": "approximately 18 times"}, {"measurement": "effect on the Sestrin2-GATOR2 interaction in vitro", "setting": "Sestrin2-GATOR2 complex", "result": "had any effect on the Sestrin2-GATOR2 interaction"}, {"measurement": "concentration acting on Sestrin2-GATOR2 complex, fold greater than leucine", "setting": "Sestrin2-GATOR2 complex", "result": "approximately 10 fold"}]}, {"compound": "CC(C)[C@H](N)C(=O)O", "note": "[valine]", "values": [{"measurement": "effect on the Sestrin2-GATOR2 interaction in vitro", "setting": "Sestrin2-GATOR2 complex", "result": "had any effect on the Sestrin2-GATOR2 interaction"}]}, {"compound": "insulin", "values": [{"measurement": "regulation of the Sestrin2-GATOR2 interaction by insulin treatment", "setting": "[1]; serum-free 50 minutes, 1 μg/ml insulin 10 minutes", "result": "did not regulate the Sestrin2-GATOR2 interaction"}]}]}
